# Source: US7745636B2, “Hepatitis C virus inhibitors” (Bristol-Myers Squibb Company, priority 2006, dated 2010)
# System: HCV 1b-377-neo replicon cells
# Assay: HCV Replicon assay, HCV 1b-377-neo replicon cells
# Type: cell-based, HCV 1b genotype
# Settings: Hepatitis C virus, Table 2, read-out: Range (EC50 against HCV 1b)
# Experimental: An HCV Replicon assay was utilized in the present disclosure, and was prepared, conducted and validated as described in commonly owned PCT/US2006/022197 and in O'Boyle et. al. Antimicrob Agents Chemother. 2005 April; 49(4):1346-53.
# HCV 1b-377-neo replicon cells were used to test the currently described compound series as well as cells resistant to compound A due to a Y2065H mutation in NS5A (described in application PCT/US2006/022197). The compounds tested were determined to have more than 10-fold less inhibitory activity on cells resistant to compound A than wild-type cells indicating a related mechanism of action between the two compound series. Thus, the compounds of the present disclosure can be effective to inhibit the function of the HCV NS5A protein and are understood to be as effective in combinations as previously described in application PCT/US2006/022197 and commonly owned WO/O4014852. Further, the compounds of the present disclosure can be effective against the HCV 1b genotype. It should also be understood that the compounds of the present disclosure can inhibit multiple genotypes of HCV. […] In one embodiment compounds of the present disclosure are active against the 1a, 1b, 2a, 2b, 3a, 4a, and 5a genotypes.
row,Compound,EC50
1,"COC(=O)N[C@@H](C(=O)N(C)[C@@H](C)c1ncc(-c2ccc(-c3ccc(-c4cnc([C@@H]5CCCN5C(=O)[C@@H](c5ccccc5)N(C)C)[nH]4)cc3)cc2)[nH]1)c1ccccc1 [Example 131.1-1, methyl((1R)-2-(((1S)-1-(5-(4′-(2-((2S)-1-((2R)-2-(dimethylamino)-2-phenylacetyl)-2-pyrrolidinyl)-1H-imidazol-5-yl)-4-biphenylyl)-1H-imidazol-2-yl)ethyl) (methyl)amino)-2-oxo-1-phenylethyl)carbamate]",1 to 999 pM
2,"COC(=O)N[C@@H](C(=O)N(C)[C@@H](C)c1ncc(-c2ccc(-c3ccc(-c4cnc([C@@H]5CCCN5C(=O)[C@@H](c5ccccc5)N5CCCCC5)[nH]4)cc3)cc2)[nH]1)c1ccccc1 [Example 131.1-2, methyl((1R)-2-(methyl((1S)-1-(5-(4′-(2-((2S)-1-((2R)-2-phenyl-2-(1-piperidinyl)acetyl)-2-pyrrolidinyl)-1H-imidazol-5-yl)-4-biphenylyl)-1H-imidazol-2-yl)ethyl)amino)-2-oxo-1-phenylethyl)carbamate]",1 to 999 pM
3,"CN(C)[C@@H](C(=O)N1CCC[C@H]1c1ncc(-c2ccc(-c3ccc(-c4cnc([C@@H]5CCCN5C(=O)[C@@H](c5ccccc5)N(C)C)[nH]4)cn3)cc2)[nH]1)c1ccccc1 [Example 132, (1R)-2-((2S)-2-(5-(6-(4-(2-((2S)-1-((2R)-2-(dimethylamino)-2-phenylacetyl)-2-pyrrolidinyl)-1H-imidazol-5-yl)phenyl)-3-pyridinyl)-1H-imidazol-2-yl)-1-pyrrolidinyl)-N,N-dimethyl-2-oxo-1-phenylethanamine]",1 to 999 pM
4,"O=C([C@H](O)c1ccccc1)N1CCC[C@H]1c1ncc(-c2ccc(-c3ccc(-c4cnc([C@@H]5CCCN5C(=O)[C@H](O)c5ccccc5)[nH]4)cn3)cc2)[nH]1 [Example 133, (1R)-2-((2S)-2-(5-(6-(4-(2-((2S)-1-((2R)-2-hydroxy-2-phenylacetyl)-2-pyrrolidinyl)-1H-imidazol-5-yl)phenyl)-3-pyridinyl)-1H-imidazol-2-yl)-1-pyrrolidinyl)-2-oxo-1-phenylethanol]",1000 to 99000 pM
5,"COC(=O)N[C@@H](C(=O)N1CCC[C@H]1c1ncc(-c2ccc(-c3ccc(-c4cnc([C@@H]5CCCN5C(=O)[C@H](NC(=O)OC)c5ccccc5)[nH]4)cn3)cc2)[nH]1)c1ccccc1 [Example 134, methyl ((1R)-2-((2S)-2-(5-(6-(4-(2-((2S)-1-((2R)-2-((methoxycarbonyl)amino)-2-phenylacetyl)-2-pyrrolidinyl)-1H-imidazol-5-yl)phenyl)-3-pyridinyl)-1H-imidazol-2-yl)-1-pyrrolidinyl)-2-oxo-1-phenylethyl)carbamate]",1 to 999 pM
6,"CO[C@@H](C(=O)N1CCC[C@H]1c1ncc(-c2ccc(-c3ccc(-c4cnc([C@@H]5CCCN5C(=O)[C@H](OC)c5ccccc5)[nH]4)cn3)cc2)[nH]1)c1ccccc1 [Example 135, 5-(2-((2S)-1-((2R)-2-methoxy-2-phenylacetyl)-2-pyrrolidinyl)-1H-imidazol-5-yl)-2-(4-(2-((2S)-1-((2R)-2-methoxy-2-phenylacetyl)-2-pyrrolidinyl)-1H-imidazol-5-yl)phenyl)pyridine]",1 to 999 pM
7,"Cc1cc(-c2cnc([C@@H]3CCCN3C(=O)[C@@H](c3ccccc3)N(C)C)[nH]2)ccc1-c1ccc(-c2cnc([C@@H]3CCCN3C(=O)[C@@H](c3ccccc3)N(C)C)[nH]2)cn1 [Example 136, (1R)-2-((2S)-2-(5-(6-(4-(2-((2S)-1-((2R)-2-(dimethylamino)-2-phenylacetyl)-2-pyrrolidinyl)-1H-imidazol-5-yl)-2-methylphenyl)-3-pyridinyl)-1H-imidazol-2-yl)-1-pyrrolidinyl)-N,N-dimethyl-2-oxo-1-phenylethanamine]",1 to 999 pM
8,"COC(=O)N[C@@H](C(=O)N1CCC[C@H]1c1ncc(-c2ccc(-c3ccc(-c4cnc([C@@H]5CCCN5C(=O)[C@H](NC(=O)OC)c5ccccc5)[nH]4)cc3C)nc2)[nH]1)c1ccccc1 [Example 138, methyl((1R)-2-((2S)-2-(5-(6-(4-(2-((2S)-1-((2R)-2-((methoxycarbonyl)amino)-2-phenylacetyl)-2-pyrrolidinyl)-1H-imidazol-5-yl)-2-methylphenyl)-3-pyridinyl)-1H-imidazol-2-yl)-1-pyrrolidinyl)-2-oxo-1-phenylethyl)carbamate]",1 to 999 pM
9,"CC(=O)N[C@@H](C(=O)N1CCC[C@H]1c1ncc(-c2ccc(-c3ccc(-c4cnc([C@@H]5CCCN5C(=O)[C@H](NC(C)=O)c5ccccc5)[nH]4)cn3)cc2)[nH]1)c1ccccc1 [Example 139, N-((1R)-2-((2S)-2-(5-(6-(4-(2-((2S)-1-((2R)-2-acetamido-2-phenylacetyl)-2-pyrrolidinyl)-1H-imidazol-5-yl)phenyl)-3-pyridinyl)-1H-imidazol-2-yl)-1-pyrrolidinyl)-2-oxo-1-phenylethyl)acetamide]",1 to 999 pM
10,"COC(=O)N[C@@H](C(=O)N1CCC[C@H]1c1ncc(-c2ccc(-c3ccc(-c4cnc([C@@H]5CCCN5C(=O)[C@@H](c5ccccc5)N(C)C)[nH]4)cn3)cc2)[nH]1)c1ccccc1 [Example 140, methyl((1R)-2-((2S)-2-(5-(4-(5-(2-((2S)-1-((2R)-2-(dimethylamino)-2-phenylacetyl)-2-pyrrolidinyl)-1H-imidazol-5-yl)-2-pyridinyl)phenyl)-1H-imidazol-2-yl)-1-pyrrolidinyl)-2-oxo-1-phenylethyl)carbamate]",1 to 999 pM
11,"COC(=O)N[C@@H](C(=O)N1CCC[C@H]1c1ncc(-c2ccc(-c3ccc(-c4cnc([C@@H]5CCCN5C(=O)[C@H]5CCCO5)[nH]4)cn3)cc2)[nH]1)c1ccccc1 [Example 141, methyl ((1R)-2-oxo-1-phenyl-2-((2S)-2-(5-(4-(5-(2-((2S)-1-((2R)-tetrahydro-2-furanylcarbonyl)-2-pyrrolidinyl)-1H-imidazol-5-yl)-2-pyridinyl)phenyl)-1H-imidazol-2-yl)-1-pyrrolidinyl)ethyl)carbamate]",1 to 999 pM
12,"COC(=O)N[C@@H](C(=O)N1CCC[C@H]1c1ncc(-c2ccc(-c3ccc(-c4cnc([C@@H]5CCCN5C(=O)C5CCN(C)CC5)[nH]4)cn3)cc2)[nH]1)c1ccccc1 [Example 142, methyl ((1R)-2-((2S)-2-(5-(4-(5-(2-((2S)-1-((1-methyl-4-piperidinyl)carbonyl)-2-pyrrolidinyl)-1H-imidazol-5-yl)-2-pyridinyl)phenyl)-1H-imidazol-2-yl)-1-pyrrolidinyl)-2-oxo-1-phenylethyl)carbamate]",1000 to 99000 pM
13,"COC(=O)N[C@@H](C(=O)N1CCC[C@H]1c1ncc(-c2ccc(-c3ccc(-c4cnc([C@@H]5CCCN5C(=O)Cc5cccnc5)[nH]4)cn3)cc2)[nH]1)c1ccccc1 [Example 143, methyl ((1R)-2-oxo-1-phenyl-2-((2S)-2-(5-(4-(5-(2-((2S)-1-(3-pyridinylacetyl)-2-pyrrolidinyl)-1H-imidazol-5-yl)-2-pyridinyl)phenyl)-1H-imidazol-2-yl)-1-pyrrolidinyl)ethyl)carbamate]",1 to 999 pM
14,"COC(=O)N[C@@H](C(=O)N1CCC[C@H]1c1ncc(-c2ccc(-c3ccc(-c4cnc([C@@H]5CCCN5C(=O)N5CCOCC5)[nH]4)cn3)cc2)[nH]1)c1ccccc1 [Example 144, methyl((1R)-2-((2S)-2-(5-(4-(5-(2-((2S)-1-(4-morpholinylcarbonyl)-2-pyrrolidinyl)-1H-imidazol-5-yl)-2-pyridinyl)phenyl)-1H-imidazol-2-yl)-1-pyrrolidinyl)-2-oxo-1-phenylethyl)carbamate]",1 to 999 pM
15,"COC(=O)N[C@@H](C(=O)N1CCC[C@H]1c1ncc(-c2ccc(-c3ccc(-c4cnc([C@@H]5CCCN5C(=O)[C@H](NC(=O)OC)c5ccccc5)[nH]4)cn3)nc2)[nH]1)c1ccccc1 [Example 145, dimethyl(2,2′-bipyridine-5,5′-diylbis(1H-imidazole-5,2-diyl(2S)-2,1-pyrrolidinediyl((1R)-2-oxo-1-phenyl-2,1-ethanediyl)))biscarbamate]",1 to 999 pM
16,"CN(C)[C@@H](C(=O)N1CCC[C@H]1c1ncc(-c2ccc(-c3ccc(-c4cnc([C@@H]5CCCN5C(=O)[C@@H](c5ccccc5)N(C)C)[nH]4)nc3)cc2)[nH]1)c1ccccc1 [Example 146, (1R)-2-((2S)-2-(5-(5-(4-(2-((2S)-1-((2R)-2-(dimethylamino)-2-phenylacetyl)-2-pyrrolidinyl)-1H-imidazol-5-yl)phenyl)-2-pyridinyl)-1H-imidazol-2-yl)-1-pyrrolidinyl)-N,N-dimethyl-2-oxo-1-phenylethanamine]",1 to 999 pM
17,"COC(=O)N[C@@H](C(=O)N1CCC[C@H]1c1ncc(-c2ccc(-c3ccc(-c4cnc([C@@H]5CCCN5C(=O)[C@H](NC(=O)OC)c5ccccc5)[nH]4)nc3)cc2)[nH]1)c1ccccc1 [Example 147, methyl((1R)-2-((2S)-2-(5-(5-(4-(2-((2S)-1-((2R)-2-((methoxycarbonyl)amino)-2-phenylacetyl)-2-pyrrolidinyl)-1H-imidazol-5-yl)phenyl)-2-pyridinyl)-1H-imidazol-2-yl)-1-pyrrolidinyl)-2-oxo-1-phenylethyl)carbamate]",1 to 999 pM
18,"CN(C)[C@@H](C(=O)N1CSC[C@H]1c1ncc(-c2ccc(-c3ccc(-c4cnc([C@@H]5CSCN5C(=O)[C@@H](c5ccccc5)N(C)C)[nH]4)cc3)cc2)[nH]1)c1ccccc1 [Example 148, (1R,1′R)-2,2′-(4,4′-biphenyldiylbis(1H-imidazole-5,2-diyl(4R)-1,3-thiazolidine-4,3-diyl))bis(N,N-dimethyl-2-oxo-1-phenylethanamine)]",1000 to 99000 pM
